# According to US20220274947A1, “NOVEL HETEROARYL-TRIAZOLE COMPOUNDS AS PESTICIDES” (Bayer Aktiengesellschaft, priority 2019, published 2022):
# Assays:
# Assay type in all cases: in vivo
# Rhipicephalus microplus [1] = assay: Rhipicephalus (Boophilus) microplus injection test (BOOPMI Inj); conditions: 168 h, injection into adult engorged female ticks, egg deposition after 7 days, read-out: activity (efficacy: 100% means all eggs are infertile); for pest or weed control at 0.004 mg: application rate 4 μg/tick; for pest or weed control at 0.02 mg: application rate 20 μg/tick
# Method in brief: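 Compound in DMSO, 1 μL, injected abdominally into five adult engorged females, which were then held in a climate chamber. Read-out is egg fertility, scored from deposition at 7 days, with unclear eggs followed to hatching (~42 days); 0% means all eggs fertile, 100% all infertile.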
# Diabrotica balteata = Diabrotica balteata spray test; conditions: 168 h, wheat seeds, larvae, after 7 days, read-out: activity (efficacy: 100% means all seedlings have grown up like in the untreated, uninfected control); for pest or weed control at 32 µg/disc, 100 g/ha: application rate 100 g/ha (=32 μg/well); for pest or weed control at 160 µg/disc, 500 g/ha: application rate 500 g/ha (=160 μg/well)
# Method in brief: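 Efficacy (%) was scored 7 days after spraying, with 100% meaning growth like the untreated, uninfected control and 0% meaning no seedling grew. Spray solutions of compound in acetone/DMF with emulsifier-containing water went onto 1-day-germinated wheat seeds, and each unit was then infested with 10-20 banded cucumber beetle larvae.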
# [2] = test system: Culex quinquefasciatus strain P00; assay: Culex quinquefasciatus test (CULXFA surface treatment & contact assay); conditions: exposure 30 minutes, 24 hours after contact, read-out: efficacy (mortality); for mortality at 20 mg/m2: surface concentration 20 mg/m^2, glazed tile; for mortality at 4 mg/m2: surface concentration 4 mg/m^2, glazed tile
# Description: Culex quinquefasciatus Test (CULXFA Surface Treatment & Contact Assay) Solvent: Aceton+2000 ppm rapeseed oil methyl ester (RME)
# In order to produce a sufficient, active ingredient containing solution it is necessary to solve the test compound in the solvent-mix (acetone at 2 mg/ml/RME 2 000 ppm). This solution is pipetted onto a glazed tile and after evaporation of the acetone, adult mosquitoes of the species Culex quinquefasciatus strain P00 are placed onto the dried surface. The exposure time is 30 minutes. Mortality in percent (%) is determined 24 hours after contact of the insects to the treated surface. 100% mortality means that all tested insects are dead, whereas 0% means that no insect died.
# Spodoptera frugiperda = Spodoptera frugiperda spray test; conditions: in Zea mays, 168 h, read-out: activity (mortality)
# Method in brief: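 Percent kill of fall armyworm caterpillars was assessed 7 days after infesting dried, treated maize leaf sections. Treatment was a spray of compound in acetone/dimethylformamide, diluted with water containing emulsifier at 1000 ppm.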
# Ctenocephalides felis = Ctenocephalides felis in-vitro contact test, adult cat flea (CTECFE Cont); conditions: application rate 5 μg/cm^2 (=500 g/ha), adult cat fleas, after 48 hours, read-out: activity (efficacy: 100% means all fleas are dead or moribund)
# Method in brief: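 Efficacy, as percent of fleas dead or moribund, was scored 48 h after adults (5-10 per tube) were placed in glass tubes whose walls carried dried compound at 5 μg/cm^2 (900 ppm solution). Moribund meant failing to climb away from a 45-50° C. hot plate within 5 min.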
# Nezara viridula = Nezara viridula spray test; conditions: in Hordeum vulgare, 96 h, barley plants, larvae, after 4 days; for mortality at 500 g/ha: application rate 500 g/ha; for mortality at 100 g/ha: application rate 100 g/ha
# Method in brief: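 Mortality was read at day 4 (0% = no kill, 100% = total kill) after spraying larva-infested barley plants. Test solutions were made from an acetone/DMF concentrate diluted with water holding 1000 ppm alkylarylpolyglycol ether emulsifier.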
# Rhipicephalus microplus [3] = assay: Rhipicephalus (Boophilus) microplus in-vitro contact test, larval cattle tick, strain Parkhurst (BOOPMI Cont); conditions: application rate 5 μg/cm^2 (=500 g/ha), tick larvae, after 48 hours, read-out: activity (efficacy: 100% means all larvae are dead or moribund)
# Method in brief: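 After 48 h at 27° C. and 85% humidity, percent dead or moribund larvae was scored from negative geotactic behaviour. Larvae (20-50, Parkhurst strain, synthetic pyrethroid-resistant) were exposed in tubes coated with compound from acetone, 900 ppm corresponding to 5 μg/cm^2.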
SMILES,pest or weed control at 0.004 mg (Rhipicephalus microplus [1]) [%],pest or weed control at 0.02 mg (Rhipicephalus microplus [1]) [%],"pest or weed control at 32 µg/disc, 100 g/ha (Diabrotica balteata) [%]","pest or weed control at 160 µg/disc, 500 g/ha (Diabrotica balteata) [%]",mortality at 20 mg/m2 [2] [%],mortality at 500 g/ha (Spodoptera frugiperda) [%],pest or weed control at 5 µg/cm2 (Ctenocephalides felis) [%],mortality at 500 g/ha (Nezara viridula) [%],pest or weed control at 5 µg/cm2 (Rhipicephalus microplus [3]) [%],mortality at 100 g/ha (Spodoptera frugiperda) [%],mortality at 4 mg/m2 [2] [%],mortality at 100 g/ha (Nezara viridula) [%]
C[C@H](NC(=O)c1cc(Cl)cc(OC(F)(F)F)c1)c1ncnn1-c1cc(N)ccn1 [II-7],100,100,100,100,80 to 100,100,90,90,,,,
C[C@H](NC(=O)c1cccc(Cl)n1)c1ncnn1-c1ccc(C#N)cn1 [II-9],,100,100,100,80 to 100,100,,100,80,83,,
Cc1nc([C@H](C)NC(=O)c2cc(Cl)cc(Cl)c2)n(-c2cc(C#N)ccn2)n1 [II-17],100,100,100,100,80 to 100,100,100,,90,,,
Cc1nc([C@H](C)NC(=O)c2cc(Cl)cc(C(F)(F)F)c2)n(-c2cc(C#N)ccn2)n1 [II-18],100,100,100,100,80 to 100,100,100,,100,100,,
Cc1nc([C@H](C)NC(=O)c2cc(C(F)(F)F)cc(C(F)(F)F)c2)n(-c2cc(C#N)ccn2)n1 [II-19],100,100,100,100,80 to 100,100,100,,100,100,,
CC(=O)Nc1ccnc(-n2ncnc2[C@H](C)NC(=O)c2cc(Cl)cc(OC(F)(F)F)c2)c1 [II-22],100,100,,100,80 to 100,83,100,,80,,80 to 100,
CC(=O)Nc1ccnc(-n2ncnc2[C@H](C)NC(=O)c2cc(Cl)cc(C(F)(F)F)c2)c1 [II-36],100,100,,,80 to 100,100,80,90,100,100,80 to 100,
C[C@H](NC(=O)c1cc(C(F)(F)F)cc(C(F)(F)F)c1)c1ncnn1-c1ncc(Br)s1 [II-41],100,100,100,100,80 to 100,,,,100,100,80 to 100,90
C[C@H](NC(=O)c1cc(Cl)cc(C(F)(F)F)c1)c1ncnn1-c1cc(-n2cncn2)ccn1 [II-43],100,100,100,100,,100,100,,100,100,80 to 100,
Cc1nc([C@H](C)NC(=O)c2cc(Cl)cc(Br)c2)n(-c2ccc(C#N)cn2)n1 [II-50],100,100,100,,,,100,,100,100,80 to 100,
Cc1nc([C@H](C)NC(=O)c2cc(Br)cc(Br)c2)n(-c2ccc(C#N)cn2)n1 [II-52],100,100,100,,,,100,,100,100,80 to 100,
Cc1nc([C@H](C)NC(=O)c2cncc(C(F)(F)F)c2)n(-c2ccc(C#N)cn2)n1 [II-63],100,100,100,,80 to 100,,100,,100,,,100
C[C@H](NC(=O)c1cc(C(F)F)cc(C(F)F)c1)c1ncnn1-c1ccc(C#N)cn1 [II-101],100,,100,,,,100,,100,100,,100
C[C@H](NC(=O)c1cc(OC(F)(F)F)cc(C(F)F)c1)c1ncnn1-c1ccc(C#N)cn1 [II-111],100,,100,,,,100,,100,100,,100
C[C@H](NC(=O)c1cc(OC(F)F)cc(C(F)F)c1)c1ncnn1-c1ccc(C#N)cn1 [II-116],100,,100,,,,100,,100,100,,100
Cc1nc([C@H](C)NC(=O)c2cc(OC(F)(F)F)cc(C(F)F)c2)n(-c2ccc(C#N)cn2)n1 [II-117],100,,100,,,,100,,100,100,,100
